We go through seven compounds from US12427157B2, “Methods for treatment of diseases involving acidic or hypoxic diseased tissues” (Cybrexa 1, Inc., priority 2018, dated 2025).

The IC50 is the point on the concentration scale where inhibition reaches its midpoint.

The structures appear in SMILES notation. Residues, ends and D or L forms follow the SMILES beside them. *: point of attachment. X11 = CN(Cc1ccc(-c2[nH]c3cc(F)cc4c3c2CCNC4=O)cc1)C(=O)OCc1ccc(NC(=O)OCCS*)cc1; X13 = Cc1cc(COC(=O)N(C)Cc2ccc(-c3[nH]c4cc(F)cc5c4c3CCNC5=O)cc2)cc(C)c1S*; X10 = Cc1cc(COC(=O)N(C)Cc2ccc(-c3[nH]c4cc(F)cc5c4c3CCNC5=O)cc2)ccc1S*; X15 = Cc1cc(S*)ccc1COC(=O)N(C)Cc1ccc(-c2[nH]c3cc(F)cc4c3c2CCNC4=O)cc1; X25 = COC[C@@H](CS*)OC(=O)N(C)Cc1ccc(-c2[nH]c3cc(F)cc4c3c2CCNC4=O)cc1; X3 = CN(Cc1ccc(-c2[nH]c3cc(F)cc4c3c2CCNC4=O)cc1)C(=O)OCc1ccc(S*)cc1; X18 = CNCc1ccc(-c2c3c4c(cc(F)cc4n2CNC(=O)OCCS*)C(=O)NCC3)cc1

The target in this assay is PARP (Homo sapiens, UniProt P09874). Nature of the assay: Enzymatic Assay 2: HT Universal Chemiluminescent PARP Assay of cleaved compounds.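 Note: PARP reaction with activated DNA run 1 h at room temperature, product detected via streptavidin-HRP and luminescence endpoint reading on a plate reader.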 The settings on record: read-out: IC50 Enzymatic Assay 2; Examples cleaved per Example A (crude cleavage solution); R^8H starting materials as such.
PARP, sequence (P09874 whole entry): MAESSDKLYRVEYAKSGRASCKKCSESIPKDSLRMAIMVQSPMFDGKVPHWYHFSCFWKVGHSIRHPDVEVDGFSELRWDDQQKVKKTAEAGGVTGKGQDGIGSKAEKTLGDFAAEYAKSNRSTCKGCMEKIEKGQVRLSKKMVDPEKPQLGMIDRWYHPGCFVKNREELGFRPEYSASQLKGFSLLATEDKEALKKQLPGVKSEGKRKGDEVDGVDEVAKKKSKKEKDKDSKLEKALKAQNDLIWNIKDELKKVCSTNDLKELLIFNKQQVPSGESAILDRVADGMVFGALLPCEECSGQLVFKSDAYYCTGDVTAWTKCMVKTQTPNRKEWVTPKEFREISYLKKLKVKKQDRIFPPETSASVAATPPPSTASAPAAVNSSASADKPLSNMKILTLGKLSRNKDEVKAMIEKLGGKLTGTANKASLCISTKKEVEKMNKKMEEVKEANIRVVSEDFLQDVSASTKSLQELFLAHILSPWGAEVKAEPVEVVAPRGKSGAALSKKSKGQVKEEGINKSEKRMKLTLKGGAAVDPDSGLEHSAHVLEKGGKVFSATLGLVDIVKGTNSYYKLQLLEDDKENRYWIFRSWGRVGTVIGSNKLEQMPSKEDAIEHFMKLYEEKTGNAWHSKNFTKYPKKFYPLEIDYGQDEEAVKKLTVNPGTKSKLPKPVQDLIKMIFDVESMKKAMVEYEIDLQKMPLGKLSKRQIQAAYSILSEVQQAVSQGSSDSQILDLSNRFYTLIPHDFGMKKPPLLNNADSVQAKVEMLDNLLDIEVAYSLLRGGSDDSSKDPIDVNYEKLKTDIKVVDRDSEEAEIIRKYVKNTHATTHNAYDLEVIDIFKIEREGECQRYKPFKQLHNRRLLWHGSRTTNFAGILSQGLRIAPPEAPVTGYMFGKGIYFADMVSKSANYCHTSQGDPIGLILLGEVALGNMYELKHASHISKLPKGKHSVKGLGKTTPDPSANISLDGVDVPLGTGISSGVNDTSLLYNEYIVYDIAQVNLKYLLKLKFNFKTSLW
Take `CC[C@H](C)[C@H](NC(=O)[C@@H]1CCCN1C(=O)[C@H](CC(N)=O)NC(=O)[C@H](CCC(N)=O)NC(=O)[C@H](CCC(=O)O)NC(=O)[C@H](C)N)C(=O)N[C@@H](Cc1ccc(O)cc1)C(=O)N[C@@H](Cc1c[nH]c2ccccc12)C(=O)N[C@@H](C)C(=O)N[C@@H](CCCNC(=N)N)C(=O)N[C@@H](Cc1ccc(O)cc1)C(=O)N[C@@H](C)C(=O)N[C@@H](CC(=O)O)C(=O)N[C@@H](Cc1c[nH]c2ccccc12)C(=O)N[C@@H](CC(C)C)C(=O)N[C@@H](Cc1ccccc1)C(=O)N[C@H](C(=O)N[C@H](C(=O)N1CCC[C@H]1C(=O)N[C@@H](CC(C)C)C(=O)N[C@@H](CC(C)C)C(=O)N[C@@H](CC(C)C)C(=O)N[C@@H](CC(C)C)C(=O)N[C@@H](CC(=O)O)C(=O)N[C@@H](CC(C)C)C(=O)N[C@@H](C)C(=O)N[C@@H](CC(C)C)C(=O)N[C@@H](CC(C)C)C(=O)N[C@H](C(=O)N[C@@H](CC(=O)O)C(=O)N[C@@H](C)C(=O)N[C@@H](CC(=O)O)C(=O)N[C@@H](CCC(=O)O)C(=O)N[C@@H](CSSC[C@H](COC)OC(=O)N(C)Cc1ccc(-c2[nH]c3cc(F)cc4c3c2CCNC4=O)cc1)C(=O)NCC(=O)O)C(C)C)[C@@H](C)O)[C@@H](C)O` [Example 27] (H-AEQNPIYWARYADWLFTTPLLLLDLALLVDADEC(X25)G-OH; N-terminus and C-terminus assumed): the IC50 came out at 3.9 nM. Regarding `CC[C@H](C)[C@H](NC(=O)[C@@H]1CCCN1C(=O)[C@H](CC(N)=O)NC(=O)[C@H](CCC(N)=O)NC(=O)[C@H](CCC(=O)O)NC(=O)[C@H](C)N)C(=O)N[C@@H](Cc1ccc(O)cc1)C(=O)N[C@@H](Cc1c[nH]c2ccccc12)C(=O)N[C@@H](C)C(=O)N[C@@H](CCCNC(=N)N)C(=O)N[C@@H](Cc1ccc(O)cc1)C(=O)N[C@@H](C)C(=O)N[C@@H](CC(=O)O)C(=O)N[C@@H](Cc1c[nH]c2ccccc12)C(=O)N[C@@H](CC(C)C)C(=O)N[C@@H](Cc1ccccc1)C(=O)N[C@H](C(=O)N[C@H](C(=O)N1CCC[C@H]1C(=O)N[C@@H](CC(C)C)C(=O)N[C@@H](CC(C)C)C(=O)N[C@@H](CC(C)C)C(=O)N[C@@H](CC(C)C)C(=O)N[C@@H](CC(=O)O)C(=O)N[C@@H](CC(C)C)C(=O)N[C@@H](C)C(=O)N[C@@H](CC(C)C)C(=O)N[C@@H](CC(C)C)C(=O)N[C@H](C(=O)N[C@@H](CC(=O)O)C(=O)N[C@@H](C)C(=O)N[C@@H](CC(=O)O)C(=O)N[C@@H](CCC(=O)O)C(=O)N[C@@H](CSSc1ccc(COC(=O)N(C)Cc2ccc(-c3[nH]c4cc(F)cc5c4c3CCNC5=O)cc2)cc1)C(=O)NCC(=O)O)C(C)C)[C@@H](C)O)[C@@H](C)O` [Example 28] (H-AEQNPIYWARYADWLFTTPLLLLDLALLVDADEC(X3)G-OH; N-terminus and C-terminus assumed), the IC50 came to 2.4 nM. In the case of `CC[C@H](C)[C@H](NC(=O)[C@@H]1CCCN1C(=O)[C@H](CC(N)=O)NC(=O)[C@H](CCC(N)=O)NC(=O)[C@H](CCC(=O)O)NC(=O)[C@H](C)N)C(=O)N[C@@H](Cc1ccc(O)cc1)C(=O)N[C@@H](Cc1c[nH]c2ccccc12)C(=O)N[C@@H](C)C(=O)N[C@@H](CCCNC(=N)N)C(=O)N[C@@H](Cc1ccc(O)cc1)C(=O)N[C@@H](C)C(=O)N[C@@H](CC(=O)O)C(=O)N[C@@H](Cc1c[nH]c2ccccc12)C(=O)N[C@@H](CC(C)C)C(=O)N[C@@H](Cc1ccccc1)C(=O)N[C@H](C(=O)N[C@H](C(=O)N1CCC[C@H]1C(=O)N[C@@H](CC(C)C)C(=O)N[C@@H](CC(C)C)C(=O)N[C@@H](CC(C)C)C(=O)N[C@@H](CC(C)C)C(=O)N[C@@H](CC(=O)O)C(=O)N[C@@H](CC(C)C)C(=O)N[C@@H](C)C(=O)N[C@@H](CC(C)C)C(=O)N[C@@H](CC(C)C)C(=O)N[C@H](C(=O)N[C@@H](CC(=O)O)C(=O)N[C@@H](C)C(=O)N[C@@H](CC(=O)O)C(=O)N[C@@H](CCC(=O)O)C(=O)N[C@@H](CSSc1ccc(COC(=O)N(C)Cc2ccc(-c3[nH]c4cc(F)cc5c4c3CCNC5=O)cc2)cc1C)C(=O)NCC(=O)O)C(C)C)[C@@H](C)O)[C@@H](C)O` [Example 29] (H-AEQNPIYWARYADWLFTTPLLLLDLALLVDADEC(X10)G-OH; N-terminus and C-terminus assumed), the IC50 amounted to 6.4 nM. In the case of `CC[C@H](C)[C@H](NC(=O)[C@@H]1CCCN1C(=O)[C@H](CC(N)=O)NC(=O)[C@H](CCC(N)=O)NC(=O)[C@H](CCC(=O)O)NC(=O)[C@H](C)N)C(=O)N[C@@H](Cc1ccc(O)cc1)C(=O)N[C@@H](Cc1c[nH]c2ccccc12)C(=O)N[C@@H](C)C(=O)N[C@@H](CCCNC(=N)N)C(=O)N[C@@H](Cc1ccc(O)cc1)C(=O)N[C@@H](C)C(=O)N[C@@H](CC(=O)O)C(=O)N[C@@H](Cc1c[nH]c2ccccc12)C(=O)N[C@@H](CC(C)C)C(=O)N[C@@H](Cc1ccccc1)C(=O)N[C@H](C(=O)N[C@H](C(=O)N1CCC[C@H]1C(=O)N[C@@H](CC(C)C)C(=O)N[C@@H](CC(C)C)C(=O)N[C@@H](CC(C)C)C(=O)N[C@@H](CC(C)C)C(=O)N[C@@H](CC(=O)O)C(=O)N[C@@H](CC(C)C)C(=O)N[C@@H](C)C(=O)N[C@@H](CC(C)C)C(=O)N[C@@H](CC(C)C)C(=O)N[C@H](C(=O)N[C@@H](CC(=O)O)C(=O)N[C@@H](C)C(=O)N[C@@H](CC(=O)O)C(=O)N[C@@H](CCC(=O)O)C(=O)N[C@@H](CSSc1ccc(COC(=O)N(C)Cc2ccc(-c3[nH]c4cc(F)cc5c4c3CCNC5=O)cc2)c(C)c1)C(=O)NCC(=O)O)C(C)C)[C@@H](C)O)[C@@H](C)O` [Example 30] (H-AEQNPIYWARYADWLFTTPLLLLDLALLVDADEC(X15)G-OH; N-terminus and C-terminus assumed) it was 2.9 nM. With `CC[C@H](C)[C@H](NC(=O)[C@@H]1CCCN1C(=O)[C@H](CC(N)=O)NC(=O)[C@H](CCC(N)=O)NC(=O)[C@H](CCC(=O)O)NC(=O)[C@H](C)N)C(=O)N[C@@H](Cc1ccc(O)cc1)C(=O)N[C@@H](Cc1c[nH]c2ccccc12)C(=O)N[C@@H](C)C(=O)N[C@@H](CCCNC(=N)N)C(=O)N[C@@H](Cc1ccc(O)cc1)C(=O)N[C@@H](C)C(=O)N[C@@H](CC(=O)O)C(=O)N[C@@H](Cc1c[nH]c2ccccc12)C(=O)N[C@@H](CC(C)C)C(=O)N[C@@H](Cc1ccccc1)C(=O)N[C@H](C(=O)N[C@H](C(=O)N1CCC[C@H]1C(=O)N[C@@H](CC(C)C)C(=O)N[C@@H](CC(C)C)C(=O)N[C@@H](CC(C)C)C(=O)N[C@@H](CC(C)C)C(=O)N[C@@H](CC(=O)O)C(=O)N[C@@H](CC(C)C)C(=O)N[C@@H](C)C(=O)N[C@@H](CC(C)C)C(=O)N[C@@H](CC(C)C)C(=O)N[C@H](C(=O)N[C@@H](CC(=O)O)C(=O)N[C@@H](C)C(=O)N[C@@H](CC(=O)O)C(=O)N[C@@H](CCC(=O)O)C(=O)N[C@@H](CSSc1c(C)cc(COC(=O)N(C)Cc2ccc(-c3[nH]c4cc(F)cc5c4c3CCNC5=O)cc2)cc1C)C(=O)NCC(=O)O)C(C)C)[C@@H](C)O)[C@@H](C)O` [Example 31] (H-AEQNPIYWARYADWLFTTPLLLLDLALLVDADEC(X13)G-OH; N-terminus and C-terminus assumed), the IC50 was 3.3 nM. Take `CC[C@H](C)[C@H](NC(=O)[C@@H]1CCCN1C(=O)[C@H](CC(N)=O)NC(=O)[C@H](CCC(N)=O)NC(=O)[C@H](CCC(=O)O)NC(=O)[C@H](C)N)C(=O)N[C@@H](Cc1ccc(O)cc1)C(=O)N[C@@H](Cc1c[nH]c2ccccc12)C(=O)N[C@@H](C)C(=O)N[C@@H](CCCNC(=N)N)C(=O)N[C@@H](Cc1ccc(O)cc1)C(=O)N[C@@H](C)C(=O)N[C@@H](CC(=O)O)C(=O)N[C@@H](Cc1c[nH]c2ccccc12)C(=O)N[C@@H](CC(C)C)C(=O)N[C@@H](Cc1ccccc1)C(=O)N[C@H](C(=O)N[C@H](C(=O)N1CCC[C@H]1C(=O)N[C@@H](CC(C)C)C(=O)N[C@@H](CC(C)C)C(=O)N[C@@H](CC(C)C)C(=O)N[C@@H](CC(C)C)C(=O)N[C@@H](CC(=O)O)C(=O)N[C@@H](CC(C)C)C(=O)N[C@@H](C)C(=O)N[C@@H](CC(C)C)C(=O)N[C@@H](CC(C)C)C(=O)N[C@H](C(=O)N[C@@H](CC(=O)O)C(=O)N[C@@H](C)C(=O)N[C@@H](CC(=O)O)C(=O)N[C@@H](CCC(=O)O)C(=O)N[C@@H](CSSCCOC(=O)Nc1ccc(COC(=O)N(C)Cc2ccc(-c3[nH]c4cc(F)cc5c4c3CCNC5=O)cc2)cc1)C(=O)NCC(=O)O)C(C)C)[C@@H](C)O)[C@@H](C)O` [Example 32] (H-AEQNPIYWARYADWLFTTPLLLLDLALLVDADEC(X11)G-OH; N-terminus and C-terminus assumed): the IC50 was found to be 43.9 nM.

Consider `CC[C@H](C)[C@H](NC(=O)[C@@H]1CCCN1C(=O)[C@H](CC(N)=O)NC(=O)[C@H](CCC(N)=O)NC(=O)[C@H](CCC(=O)O)NC(=O)[C@H](C)N)C(=O)N[C@@H](Cc1ccc(O)cc1)C(=O)N[C@@H](Cc1c[nH]c2ccccc12)C(=O)N[C@@H](C)C(=O)N[C@@H](CCCNC(=N)N)C(=O)N[C@@H](Cc1ccc(O)cc1)C(=O)N[C@@H](C)C(=O)N[C@@H](CC(=O)O)C(=O)N[C@@H](Cc1c[nH]c2ccccc12)C(=O)N[C@@H](CC(C)C)C(=O)N[C@@H](Cc1ccccc1)C(=O)N[C@H](C(=O)N[C@H](C(=O)N1CCC[C@H]1C(=O)N[C@@H](CC(C)C)C(=O)N[C@@H](CC(C)C)C(=O)N[C@@H](CC(C)C)C(=O)N[C@@H](CC(C)C)C(=O)N[C@@H](CC(=O)O)C(=O)N[C@@H](CC(C)C)C(=O)N[C@@H](C)C(=O)N[C@@H](CC(C)C)C(=O)N[C@@H](CC(C)C)C(=O)N[C@H](C(=O)N[C@@H](CC(=O)O)C(=O)N[C@@H](C)C(=O)N[C@@H](CC(=O)O)C(=O)N[C@@H](CCC(=O)O)C(=O)N[C@@H](CSSCCOC(=O)NCn1c(-c2ccc(CNC)cc2)c2c3c(cc(F)cc31)C(=O)NCC2)C(=O)NCC(=O)O)C(C)C)[C@@H](C)O)[C@@H](C)O` [Example 33] (H-AEQNPIYWARYADWLFTTPLLLLDLALLVDADEC(X18)G-OH; N-terminus and C-terminus assumed), for which the IC50 came out at 2.3 nM.
